The compounds below were run against T1, human PAD4 (Homo sapiens, UniProt Q9UM07) (assay: In vitro PAD4 BAEE biochemical assay). Details: BAEE substrate 3 mM, 5 nM PAD4, 2 mM calcium chloride; geometric mean of multiple experiments.
T1 construct: human PAD4 (NM_012387), A2-P663, was PCR amplified; His-SUMO (N, cleaved yes); made in house; host or cells: E. coli BL21(DE3)
Summary of the method: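 Assay was run at 25 °C using 3 mM BAEE and 5 nM human PAD4 after a 30 min compound preincubation; ammonia produced over 2 h was quantified by OPA-derived fluorescence. Full inhibition was defined by 50 µM BB-Cl-Amidine, and IC50 came from variable-slope nonlinear regression.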

T1 sequence (Q9UM07 2-663): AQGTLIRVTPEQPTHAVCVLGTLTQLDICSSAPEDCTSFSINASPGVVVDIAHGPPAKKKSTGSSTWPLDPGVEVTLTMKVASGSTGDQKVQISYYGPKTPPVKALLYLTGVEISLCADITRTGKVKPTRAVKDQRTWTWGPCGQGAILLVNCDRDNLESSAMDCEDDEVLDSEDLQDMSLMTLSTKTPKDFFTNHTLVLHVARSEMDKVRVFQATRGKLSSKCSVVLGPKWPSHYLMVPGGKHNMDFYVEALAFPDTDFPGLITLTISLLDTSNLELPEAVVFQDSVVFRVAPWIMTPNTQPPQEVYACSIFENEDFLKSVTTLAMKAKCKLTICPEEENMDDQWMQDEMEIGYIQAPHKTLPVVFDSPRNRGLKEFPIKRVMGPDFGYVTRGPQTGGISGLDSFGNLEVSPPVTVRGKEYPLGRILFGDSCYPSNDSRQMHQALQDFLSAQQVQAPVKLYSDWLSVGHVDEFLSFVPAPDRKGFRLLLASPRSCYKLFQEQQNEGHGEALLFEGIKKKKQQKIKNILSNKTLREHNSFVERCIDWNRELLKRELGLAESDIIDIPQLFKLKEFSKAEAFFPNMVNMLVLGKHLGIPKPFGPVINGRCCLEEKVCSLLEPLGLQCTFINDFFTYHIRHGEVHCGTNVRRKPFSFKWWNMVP

Question: `COc1cc(C(=O)N[C@H]2CNC[C@H](C)C2)cc2nc(-c3cc4ccc5nc4n3CCCCCCC(C)(C)C(=O)N[C@@H]5C)n(C)c12` [Example 67, 7-methoxy-1-methyl-~{N}-[(3~{R},5~{R})-5-methyl-3-piperidyl]-2-[(11~{R})-8,8,11-trimethyl-9-oxo-1,10,19-triazatricyclo[10.5.2.0^{15,18}]nonadeca-12(19),13,15(18),16-tetraen-17-yl]benzimidazole-5-carboxamide] was tested. Which IC50 did it give?
Answer: 1300 nM

Question: How did the IC50 turn out when `COc1cc(C(=O)N[C@H]2CNC[C@@H](C)C2)cc2nc(-c3cc4ccc5nc4n3CCCCCCC(C)(C)C(=O)N[C@@H]5C)n(C)c12` [Example 68, 7-methoxy-1-methyl-~{N}-[(3~{R},5~{S})-5-methyl-3-piperidyl]-2-[(11~{R})-8,8,11-trimethyl-9-oxo-1,10,19-triazatricyclo[10.5.2.0^{15,18}]nonadeca-12(19),13,15(18),16-tetraen-17-yl]benzimidazole-5-carboxamide] was run?
Answer: 287 nM

Question: `COc1cc(C(=O)N[C@H]2CNCC[C@H]2F)cc2nc(-c3cc4ccc5nc4n3CCCCCCC(C)(C)C(=O)N[C@@H]5C)n(C)c12` [Example 69, ~{N}-[(3~{S},4~{R})-4-fluoro-3-piperidyl]-7-methoxy-1-methyl-2-[(11~{R})-8,8,11-trimethyl-9-oxo-1,10,19-triazatricyclo[10.5.2.0^{15,18}]nonadeca-12(19),13,15(18),16-tetraen-17-yl]benzimidazole-5-carboxamide] was tested. Which IC50 did it give?
Answer: 201 nM

Question: For `COc1cc(C(=O)N[C@@H]2CCCNC2)cc2nc(-c3cc4ccc5nc4n3CCCCCCC(C)(C)C(=O)N[C@@H]5C)n(C)c12` [Example 70, 7-methoxy-1-methyl-~{N}-[(3~{R})-3-piperidyl]-2-[(11~{R})-8,8,11-trimethyl-9-oxo-1,10,19-triazatricyclo[10.5.2.0^{15,18}]nonadeca-12(19),13,15(18),16-tetraen-17-yl]benzimidazole-5-carboxamide], which IC50 is on record?
Answer: 137 nM

Question: `COC(=O)[C@H]1CC[C@@H](NC(=O)c2cc(OC)c3c(c2)nc(-c2cc4ccc5nc4n2CCCCCCC(C)(C)C(=O)N[C@@H]5C)n3C)CN1` [Example 71, methyl (2~{R},5~{R})-5-[[7-methoxy-1-methyl-2-[(11~{R})-8,8,11-trimethyl-9-oxo-1,10,19-triazatricyclo[10.5.2.0^{15,18}]nonadeca-12(19),13,15(18),16-tetraen-17-yl]benzimidazole-5-carbonyl]amino]piperidine-2-carboxylate] was tested. Which IC50 did it give?
Answer: 560 nM

Question: Which IC50 does the source give for `COc1cc(C(=O)N[C@@H]2CC[C@H](C)NC2)cc2nc(-c3cc4ccc5nc4n3CCCCCCC3(CC3)C(=O)N[C@@H]5C)n(C)c12` [Example 72, 7-methoxy-1-methyl-2-[(11~{R})-11-methyl-9-oxo-spiro[1,10,19-triazatricyclo[10.5.2.0^{15,18}]nonadeca-12(19),13,15(18),16-tetraene-8,1′-cyclopropane]-17-yl]-~{N}-[(3~{R},6~{S})-6-methyl-3-piperidyl]benzimidazole-5-carboxamide] here?
Answer: 308 nM

Question: `COc1cc(C(=O)N[C@@H]2CC[C@H](C)NC2)cc2nc(-c3cc4ccc5nc4n3CCCCCCC(C)(C)C(=O)N[C@@H]5C)n(C)c12` [Example 73, 7-methoxy-1-methyl-~{N}-[(3~{R},6~{S})-6-methyl-3-piperidyl]-2-[(11~{R})-8,8,11-trimethyl-9-oxo-1,10,19-triazatricyclo[10.5.2.0^{15,18}]nonadeca-12(19),13,15(18),16-tetraen-17-yl]benzimidazole-5-carboxamide] was tested. Which IC50 did it give?
Answer: 125 nM

Question: `COc1cc(C(=O)N[C@H]2CNCC[C@@H]2F)cc2nc(-c3cc4ccc5nc4n3CCCCCCC3(CC3)C(=O)N[C@@H]5C)n(C)c12` [Example 74, ~{N}-[(3~{S},4~{S})-4-fluoro-3-piperidyl]-7-methoxy-1-methyl-2-[(11~{R})-11-methyl-9-oxo-spiro[1,10,19-triazatricyclo[10.5.2.0^{15,18}]nonadeca-12(19),13,15(18),16-tetraene-8,1′-cyclopropane]-17-yl]benzimidazole-5-carboxamide] was tested. Which IC50 did it give?
Answer: 221 nM

From patent US11976083B2, “Inhibitors of peptidylarginine deiminases” (Gilead Sciences, Inc., priority 2020, dated 2024)
